pIC50: −log10 of the molar value.
Tested on: A2780 (human ovarian cancer)
Experiment: Antiproliferative activity against drug-sensitive human A2780 cells

## COc1cc(/C=C/c2cc(O)c(CC=C(C)C)c(O)c2)cc2c1O[C@]1(C)CC[C@@H](O)C(C)(C)[C@H]1C2 [SCHWEINFURTHIN F]
  pIC50: 5.30

— ChEMBL document CHEMBL1142962, “Antiproliferative prenylated stilbenes and flavonoids from Macaranga alnifolia from the Madagascar rainforest” (J Nat Prod, 2007)
